Experimental data as given in patent publication US20250163038A1, “CBL-B MODULATORS AND USES THEREOF” (Nimbus Clio, Inc., priority 2021, published 2025).

Assays:
[1] = molecular target: T1, Recombinant human c-Cbl (aa 47-435) (Homo sapiens, UniProt P22681); assay: c-Cbl Biochemical Assay (TR-FRET); details: hc-Cbl Biochemical Assay (TR-FRET); read-out: TR-FRET hcCbl IC50
T1 sequence (P22681 47-435): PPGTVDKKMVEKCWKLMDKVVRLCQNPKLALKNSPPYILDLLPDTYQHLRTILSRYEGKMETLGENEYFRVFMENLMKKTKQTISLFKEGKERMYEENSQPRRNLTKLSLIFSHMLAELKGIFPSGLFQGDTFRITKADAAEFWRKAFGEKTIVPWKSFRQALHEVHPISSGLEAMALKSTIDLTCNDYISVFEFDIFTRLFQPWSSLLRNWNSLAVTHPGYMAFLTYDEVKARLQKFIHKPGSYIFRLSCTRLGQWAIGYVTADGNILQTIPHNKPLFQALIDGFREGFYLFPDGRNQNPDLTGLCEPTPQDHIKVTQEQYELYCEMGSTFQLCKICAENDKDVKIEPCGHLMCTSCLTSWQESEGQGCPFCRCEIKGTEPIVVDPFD

[2] = molecular target: Recombinant human Cbl-b (aa 36-427) (Homo sapiens, UniProt Q13191); assay: Cbl-b Biochemical Assay (TR-FRET); details: read-out: TR-FRET hCbl-b IC50
Recombinant human Cbl-b (aa 36-427), sequence (Q13191 36-427): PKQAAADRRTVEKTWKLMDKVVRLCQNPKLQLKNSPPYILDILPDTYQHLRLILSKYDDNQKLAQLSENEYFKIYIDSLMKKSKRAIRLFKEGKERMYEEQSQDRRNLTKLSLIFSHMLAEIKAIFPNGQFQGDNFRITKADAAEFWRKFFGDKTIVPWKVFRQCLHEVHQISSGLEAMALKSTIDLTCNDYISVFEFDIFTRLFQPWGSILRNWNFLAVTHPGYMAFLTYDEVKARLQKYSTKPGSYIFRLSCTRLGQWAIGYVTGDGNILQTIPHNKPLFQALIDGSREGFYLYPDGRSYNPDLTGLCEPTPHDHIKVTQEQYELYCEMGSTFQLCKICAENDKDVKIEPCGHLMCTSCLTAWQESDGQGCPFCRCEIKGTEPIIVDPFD

IC50 [1] [µM]	IC50 [2] [µM]	Compound
10 to 50	0.2 to 1	Cn1cnnc1-c1cc(C#N)ccc1-c1cccc(-c2nc3cccc(C(F)(F)F)c3o2)c1 [AU-1, 2-(4-Methyl-4H-1,2,4-triazol-3-yl)-3′-(7-(trifluoromethyl)benzo[d]oxazol-2-yl)-[1,1′-biphenyl]-4-carbonitrile]
10 to 50	10 to 50	CN(C)CCOc1ccc2nc(-c3cccc(C4(Cc5nncn5C)COC4)c3)[nH]c2c1C(F)(F)F [AZ-1, N,N-Dimethyl-2-((2-(3-(3-((4-methyl-4H-1,2,4-triazol-3-yl)methyl)oxetan-3-yl)phenyl)-7-(trifluoromethyl)-1H-benzo[d]imidazol-6-yl)oxy)ethan-1-amine]
10 to 50	10 to 50	Cn1cnnc1-c1cnn(C)c1-c1cc(Cl)nc(-c2cc(C(F)(F)F)c[nH]c2=O)c1 [ACR-3, 6-Chloro-4-(1-methyl-4-(4-methyl-4H-1,2,4-triazol-3-yl)-1H-pyrazol-5-yl)-5′-(trifluoromethyl)-[2,3′-bipyridin]-2′(1′H)-one]
10 to 50	0.2 to 1	Cn1cnnc1CC1(c2cccc(-c3nc4cccc(C(F)(F)F)c4o3)c2)COC1 [ACO-1, 2-(3-(3-((4-Methyl-4H-1,2,4-triazol-3-yl)methyl)oxetan-3-yl)phenyl)-7-(trifluoromethyl)benzo[d]oxazole]
1 to 10	0.2 to 1	CCNc1cc(-c2ccc(F)cc2-c2nncn2C)cc(-c2nc3cccc(C(F)(F)F)c3o2)n1 [AEJ-4, N-Ethyl-4-[4-fluoro-2-(4-methyl-1,2,4-triazol-3-yl)phenyl]-6-[7-(trifluoromethyl)-1,3-benzoxazol-2-yl]pyridin-2-amine]
10 to 50	10 to 50	C[C@H]1CCCN(C(=O)c2cc(C(F)(F)F)c3oc(-c4cccc(-c5ccccc5-c5nncn5C)c4)nc3c2)C1 [Example I-2, (S)-(2-(2′-(4-Methyl-4H-1,2,4-triazol-3-yl)-[1,1′-biphenyl]-3-yl)-7-(trifluoromethyl)benzo[d]oxazol-5-yl)(3-methylpiperidin-1-yl)methanone]
1 to 10	0.2 to 1	Cn1cnnc1CC1(c2cccc(-c3nc4cc(CNc5nccn5C)cc(C(F)(F)F)c4[nH]3)c2)COC1 [ACC-1, 1-Methyl-N-((2-(3-(3-((4-methyl-4H-1,2,4-triazol-3-yl)methyl)oxetan-3-yl)phenyl)-7-(trifluoromethyl)-1H-benzo[d]imidazol-5-yl)methyl)-1H-imidazol-2-amine]
10 to 50	1 to 10	CCNc1cc(-c2c(-c3nncn3C)cnn2C)cc(-c2nc3cc(CN4CCC5(CC5)C4)cc(C(F)(F)F)c3o2)n1 [AAC-5, 6-(5-{5-Azaspiro[2.4]heptan-5-ylmethyl}-7-(trifluoromethyl)-1,3-benzoxazol-2-yl)-N-ethyl-4-[2-methyl-4-(4-methyl-1,2,4-triazol-3-yl)pyrazol-3-yl]pyridin-2-amine]
10 to 50	10 to 50	CC(Cc1nncn1C)c1cccc(-c2nc3ccc(C(=O)N4CCN(C)CC4)c(C(F)(F)F)c3[nH]2)c1 (racemic) [AY-5, (2-(3-(1-(4-Methyl-4H-1,2,4-triazol-3-yl)propan-2-yl)phenyl)-7-(trifluoromethyl)-1H-benzo[d]imidazol-6-yl)(4-methylpiperazin-1-yl)methanone]
10 to 50	10 to 50	CC(Cc1nncn1C)c1cccc(-c2nc3ccc(OCCN(C)C)c(C(F)(F)F)c3[nH]2)c1 (stereo not shown) [AW-4, N,N-dimethyl-2-((2-(3-(1-(4-methyl-4H-1,2,4-triazol-3-yl)propan-2-yl)phenyl)-7-(trifluoromethyl)-1H-benzo[d]imidazol-6-yl)oxy)ethan-1-amine]
10 to 50	10 to 50	Cn1cnnc1CC1(c2cccc(-c3nc4cccc(C(F)(F)F)c4[nH]3)c2)COC1 [ABB-2, 2-(3-(3-((4-Methyl-4H-1,2,4-triazol-3-yl)methyl)oxetan-3-yl)phenyl)-7-(trifluoromethyl)-1H-benzo[d]imidazole]
10 to 50	10 to 50	C[C@H](Cc1nncn1C)c1cccc(-c2nc3cccc(C(F)(F)F)n3n2)c1 [ACA-2, (R)-2-(3-(1-(4-methyl-4H-1,2,4-triazol-3-yl)propan-2-yl)phenyl)-5-(trifluoromethyl)-[1,2,4]triazolo[1,5-a]pyridine]
10 to 50	0.2 to 1	Cn1cnnc1-c1cnn(C)c1-c1cccc(-c2nc3cc(CN[C@H]4CCC[C@@H]4O)cc(C(F)(F)F)c3o2)c1 [AAU-6, (1S,2S)-2-(((2-(3-(1-Methyl-4-(4-methyl-4H-1,2,4-triazol-3-yl)-1H-pyrazol-5-yl)phenyl)-7-(trifluoromethyl)benzo[d]oxazol-5-yl)methyl)amino)cyclopentan-1-ol]
10 to 50	0.2 to 1	Cn1cnnc1CC1(c2cccc(-c3nc4cc(CN5CCCC5)cc(C(F)(F)F)c4[nH]3)c2)COC1 [ABL-1, 2-(3-(3-((4-Methyl-4H-1,2,4-triazol-3-yl)methyl)oxetan-3-yl)phenyl)-5-(pyrrolidin-1-ylmethyl)-7-(trifluoromethyl)-1H-benzo[d]imidazole]
10 to 50	10 to 50	COC(=O)c1ccc2[nH]c(-c3cc(-c4ccc(F)cc4-c4nncn4C)cc(C4CC4)n3)nc2c1 [AED-3, Methyl 2-(6-cyclopropyl-4-(4-fluoro-2-(4-methyl-4H-1,2,4-triazol-3-yl)phenyl)pyridin-2-yl)-1H-benzo[d]imidazole-5-carboxylate]
10 to 50	1 to 10	COC(=O)c1cc(C(F)(F)F)c2oc(-c3cccc([C@]4(c5nncn5C)C[C@@H](C)C4)c3)nc2c1 [ADC-3, Methyl 2-(3-((1s,3s)-3-methyl-1-(4-methyl-4H-1,2,4-triazol-3-yl)cyclobutyl)phenyl)-7-(trifluoromethyl)benzo[d]oxazole-5-carboxylate]
10 to 50	10 to 50	Cn1cnnc1CC1(c2cccc(-c3nc4cc(C(=O)N5CCC6(CC6)C5)cc(C(F)(F)F)c4[nH]3)c2)COC1 [ABJ-2, (2-(3-(3-((4-Methyl-4H-1,2,4-triazol-3-yl)methyl)oxetan-3-yl)phenyl)-7-(trifluoromethyl)-1H-benzo[d]imidazol-5-yl)(5-azaspiro[2.4]heptan-5-yl)methanone]
10 to 50	10 to 50	CN1CC[C@@H](Oc2ccc3nc(-c4cccc(-c5ccccc5-c5nncn5C)c4)[nH]c3c2C(F)(F)F)C1 [BH-3, (R)-2-(2′-(4-Methyl-4H-1,2,4-triazol-3-yl)-[1,1′-biphenyl]-3-yl)-6-((1-methylpyrrolidin-3-yl)oxy)-7-(trifluoromethyl)-1H-benzo[d]imidazole]
10 to 50	10 to 50	Cn1cnnc1-c1cc(F)ccc1-c1cccc(-c2nc3cc(CO)ccc3o2)c1 [AJ-3, (2-(4′-Fluoro-2′-(4-methyl-4H-1,2,4-triazol-3-yl)-[1,1′-biphenyl]-3-yl)benzo[d]oxazol-5-yl)methanol]
10 to 50	1 to 10	CCNc1cc(-c2c(-c3nncn3C)cnn2C)cc(-c2nc3cc(CN4CCC5(CC5)C4)cc(C(F)(F)F)c3[nH]2)n1 [AAM-2, 6-(6-{5-Azaspiro[2.4]heptan-5-ylmethyl}-4-(trifluoromethyl)-3H-1,3-benzodiazol-2-yl)-N-ethyl-4-[2-methyl-4-(4-methyl-1,2,4-triazol-3-yl)pyrazol-3-yl]pyridin-2-amine]
